# Results: patent US4201784A, “Substituted 2-[2'-(5"-nitrofuryl-2")vinyl-and 4'-(5"-nitrofuryl-2"-1,3-butadieryl]quinoline-4-carboxylic acid amides and salts thereof” (Institut Organicheskogo Sinteza Akademii Nauk Latviiskoi SSR, priority 1977, dated 1980)
# Where two headings read alike, the source gives them in different places.
# Experiments:
# [1] = Biological availability, blood and liver of rats; type: in vivo; conditions: intraperitoneal 100 mg/kg
# Experimental: The biological availability of giniquine was studied on common white male rats with a mass of 150-200 g and common white male mice with a mass of 25-30 g. The test began seven days after Ehrlich ascitic carcinoma was inoculated to the animals.
# Giniquine was injected intraperitoneally in 100 mg/kg doses, using distilled water as a solvent. The animals were slaughtered at preset time intervals (5,15,30 and 60 minutes) and a biological material (blood and liver for rats and ascites for mice) was taken for analysis. To separate ascitic fluid from the tumor cells, ascites was centrifuged at 2000 r.p.m. for 10 minutes. The precipitate was washed with a mixture of physiological solution and heparin and was again centrifuged under the same conditions, 20% homogenates in distilled water were prepared from ascitic cells.
# Giniquine was extracted from the biological material with chloroform.
# The extraction procedure comprised the following stages: 0.1 ml of ethyl alcohol were added to 1 ml of tested sample and the solution was thoroughly mixed with 0.5 ml of a saturated potassium carbonate solution, then 4 ml of chloroform was added. Closed test tubes were vigorously shaken on a rocker for one hour. After the shaking, the samples were centrifuged at 5000 r.p.m. for ten minutes. The chloroform layer was used for analysis. Daylight was avoided.
# Concentration of the preparation in biological samples was determined by spectrophotometry at 400 nm using molar absorption factor (ε0.10^-3 =36.04).
# The results were expressed in μg/ml of sample. Minimum sensitivity of the method was 1.1 μg/ml.
# wound healing processes = test: Influence on wound healing processes
# melanoma B16 = test: Antitumor activity, melanoma B16; type: in vivo, mice
# Experimental: Apart from the tests on Ehrlich ascitic tumor, giniquine was studied on twelve more inoculated tumors. Seven tumors (melanoma B16, sarcoma AK, large intestine carcinoma acatol-1, sarcoma 180, adenocarcinoma 755, Lewis lung carcinoma and sarcoma 37) were inoculated subcutaneously with 50 mg of tumoral cells per mouse. Four tumors (lymphatic leukemies L 5178, L 5178Y, L 1210 and P-388) were inoculated intraperitoneally with 10^6 cells per mouse. One tumor (La, hemocytoblastosis) was inoculated intraperitoneally by injecting 50 mg of cell suspension of spleen and liver of mice suffering La hemocytoblastosis, per mouse. […] The rate of deceleration of the tumor growth was established 14 days after the ultimate injection of giniquine; life of test animals was recorded for 60 days.
# Liver = test: In vivo biosynthesis of DNA, RNA and protein in liver; design: species or system mice; conditions: for Incorporation of 2-^14 C-leucine in protein / Incorporation of 2-^14 C-thymidine in DNA: intraperitoneal 100 mg/kg; for inhibition at 100 mg/kg: Mus musculus, three hours
# Experimental: (§1) The influence of giniquine on biosynthetic processes in the in vivo tests was studied on common white mice of a mass of 25-35 g with Ehrlich ascitic tumor.
# The mice were divided into two groups. The animals in the first group were given a single injection of the preparation in differing doses, and the animals in the second group were treated with distilled water. Three series of experiments were conducted. In the first series of tests (16 mice) the preparation was injected in a dose of 100 mg/kg ([…] dose), and the animals were decapitated one hour after the injection; in the second test series (16 mice) the animals were slaughtered 3 hours after the injection with other conditions being the same. In the third test series (35 mice) the influence of giniquine on plastic metabolism in tumor cells and normal tissues was studied 24 hours after the injection of a 0.33% solution of the preparation in a dose of 28 mg/kg (therapeutical dose).
# Labeled precursors of nucleic acids and protein were injected intraperitoneally one hour before the slaughter of the animals (50 μc/100 g). Ascitic fluid, as well as liver and spleen, mucous membrane of small intestine, brain, kidneys and lungs were taken for analysis. 10% suspension was prepared from tumor cells, and 10% homogenates were prepared from tissues in a physiological solution.
# Tumor cells and tissue homogenates for precipitation of nucleic acids were treated with 57% perchloric acid (10:1). Acid-soluble fraction was removed by washing the precipitate twice with 5 ml of 5% perchloic acid with subsequent centrifuging at 2000 g. Nucleic acids were hydrolyzed by the Schneider method. Radioactivity of DNA and RNA fractions was measured by means of a liquid scintillation counter. The quantity of DNA and RNA was determined by spectrophotometry: the quantity of DNA was determined with diphenylamine, and RNA- with orcin.
# To prepare protein hydrolysate, the suspension of tumoral cells and homogenates of normal tissues were treated with cool 10% trichloracetic acid (1:4), with subsequent centrifuging at 2000 g for ten minutes. The precipitate was washed twice with 5 ml of 10% trichloracetic acid. Lipoids were removed by a consecutive treatment of the precipitate with ethanol, saturated solution of sodium acetate, a mixture of ethanol and ether (3:1) and ether. To prepare protein hyhdrolysate, 4 ml of 0.3N KOH were added to the precipitate, and the mixture was placed into a thermostatic chamber at 37° C. for 60 minutes. The radioactivity was measured by means of a liquid scintillation counter. Protein was quantitatively determined by spectrophotometry using a microbiuret reaction.
# [2] = test system: normal tissues (mucous membrane of small intestine, liver, spleen, brain, kidneys, lungs); test: In vivo biosynthesis of macromolecules in normal tissues; design: species or system mice; conditions: 24 hours, 28 mg/kg
# Experimental: as §1
# The mice were divided into two groups. The animals in the first group were given a single injection of the preparation in differing doses, and the animals in the second group were treated with distilled water. Three series of experiments were conducted. […]
# Tumor cells and tissue homogenates for precipitation of nucleic acids were treated with 57% perchloric acid (10:1). […] Radioactivity of DNA and RNA fractions was measured by means of a liquid scintillation counter. The quantity of DNA and RNA was determined by spectrophotometry: the quantity of DNA was determined with diphenylamine, and RNA- with orcin.
# To prepare protein hydrolysate, the suspension of tumoral cells and homogenates of normal tissues were treated with cool 10% trichloracetic acid (1:4), with subsequent centrifuging at 2000 g for ten minutes. […] The radioactivity was measured by means of a liquid scintillation counter. Protein was quantitatively determined by spectrophotometry using a microbiuret reaction.
# [3] = BDF1 male mice, intraperitoneal, days 1,2,5,6,7, optim. daily dose 17.0 mg/kg
# [4] = 24 hours, intraperitoneal 28 mg/kg
smiles,measurement,setting,value
"CCN(CC)CCCC(C)NC(=O)c1cc(C=Cc2ccc([N+](=O)[O-])o2)nc2ccccc12 (stereo not drawn) [giniquine, 2-[2'-(5""-nitrofuryl-2"")vinyl]quinoline-4-carboxylic acid (α-methyl-δ-diethylaminobutyl)amide triphosphate]",time of detection in blood,[1]; blood,as early as in five minutes
same,Cmax at 0.5 h,"[1]; rat, blood, ip, 30 minutes, read-out: maximum level in blood",23000 ng/mL
same,Tmax,"[1]; rat, ip, blood, read-out: time of maximum level in blood (converted)",30 min
same,Cmax,"[1]; rat, ip, liver, read-out: maximum concentration in liver",28000 ng/mL
same,Tmax,"[1]; rat, ip, liver, read-out: time of maximum concentration in liver (converted)",20 min
same,concentration at 1 h,"[1]; rat, serum, ip, 60 minutes, read-out: content in blood serum",3000 ng/mL
same,inhibiting influence on wound healing processes,wound healing processes,absence of an inhibiting influences on wound healing processes
same,Deceleration of tumor growth,melanoma B16; [3],48%
same,Max. prolongation of life,melanoma B16; [3],10%
same,antitumor effect (in words),melanoma B16; melanoma B16,slight antitumor effect
same,Incorporation of 2-^14 C-leucine in protein,Liver; 1 h,127.0 % of control
same,Incorporation of 2-^14 C-thymidine in DNA,Liver; 1 h,106.0 % of control
same,Incorporation of 2-^14 C-leucine in protein,Liver; 3 h,96.0 % of control
same,Incorporation of 2-^14 C-thymidine in DNA,Liver; 3 h,93.0 % of control
same,"Incorporation of specific precursors, DNA",Liver; [4],190.0 % of control
same,"Incorporation of specific precursors, Protein",Liver; [4],112.0 % of control
same,"Incorporation of specific precursors, RNA",Liver; [4],124.0 % of control
same,inhibition at 100 mg/kg,"Liver; 3 h, 100 mg/kg, read-out: inhibition of biosynthesis of DNA",7%
same,inhibition at 100 mg/kg,"Liver; 3 h, 100 mg/kg, read-out: inhibition of biosynthesis of protein",4%
same,inhibition of biosynthesis of protein (in words),"Liver; one hour, 100 mg/kg",not observed or inappreciable
same,stimulation of biosynthesis of DNA,"Liver; one hour, 100 mg/kg",6%
same,biosynthesis processes in normal tissues (in words),[2],a stimulation of biosynthesis processes
